This is an account of results in US20250034170A1, “SMALL MOLECULE MODULATORS OF GLUCOCEREBROSIDASE ACTIVITY AND USES THEREOF” (Vanqua Bio, Inc., priority 2021, published 2025).

The target in this experiment is T1, GCase (Homo sapiens, UniProt P04062).
T1 construct: endogenous in cells; host or cells: HeLa cells
T1 sequence (P04062 40-536): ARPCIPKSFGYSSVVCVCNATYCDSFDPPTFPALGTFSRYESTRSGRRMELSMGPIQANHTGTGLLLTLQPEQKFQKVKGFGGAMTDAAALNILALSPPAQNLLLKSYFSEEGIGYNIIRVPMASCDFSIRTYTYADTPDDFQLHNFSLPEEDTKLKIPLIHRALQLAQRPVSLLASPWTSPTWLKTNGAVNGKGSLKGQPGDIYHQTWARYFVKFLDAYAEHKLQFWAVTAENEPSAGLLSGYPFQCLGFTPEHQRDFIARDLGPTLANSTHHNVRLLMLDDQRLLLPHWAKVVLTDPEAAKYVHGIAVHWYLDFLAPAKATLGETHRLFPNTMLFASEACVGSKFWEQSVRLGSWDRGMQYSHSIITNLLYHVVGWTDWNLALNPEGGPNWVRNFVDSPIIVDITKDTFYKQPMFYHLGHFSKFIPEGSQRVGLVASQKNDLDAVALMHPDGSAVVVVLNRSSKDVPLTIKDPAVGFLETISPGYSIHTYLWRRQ
Kind of experiment: activation of GCase in a live cell PFB assay in HELA cells. It counts as cell-based. The procedure: Exemplary compounds were evaluated for activation of GCase in a live cell PFB assay in HELA cells (essentially as described in Ysselstein et al., “LRRK2 kinase activity regulates lysosomal glucocerebrosidase in neurons derived from Parkinson's disease patients” Nature Communications (2019) 10:5570). […] EC50 ranges: A: <10 μM; B: >10-50 μM; C: >50-100 μM; D: >100 μM.

[1] abbreviates: activation of GCase, EC50 ranges.

The structures appear in SMILES notation.

Take `O=C1N(c2cnc3cnn(CC(F)F)c3n2)CCC12CCN(c1ccnc(C(F)(F)F)c1)C2` (stereo not drawn) [Cmpd 518]: the EC50 – broadly, the midpoint of the concentration-response curve – under setting [1] was over 100 µM.

For `O=C1CC2(CCN(c3cnc4cnn(CC(F)F)c4n3)CC2)CN1Cc1cncc(Cl)c1` [Cmpd 336], under setting [1], the 50% effective concentration (EC50) lay in the range of 10 to 50 µM.

With `FC(F)Cn1ncc2ncc(NC3COC4(C3)CN(c3ccc(C(F)(F)F)nc3)C4)nc21` (stereo not drawn) [Cmpd 191], for the setting “EC50 given as range classes”, the concentration for a half-maximal effect (EC50) fell in the range of 10 to 50 µM.

As to `Cc1nn(C2COC2)c2nc(N3CC4(CC(=O)N(c5ccnc(C(F)(F)F)c5)C4)C3)cnc12` [Cmpd 349], under setting [1], the 50% effective concentration (EC50) lay within 10 to 50 µM.

With `FC(F)(F)c1ccc(N2CCC3(CCN(c4cncc(-c5nncs5)n4)CC3)C2)nc1` [Cmpd 234], the EC50 under setting [1] lay within 10 to 50 µM.

Take `Cc1nc(N2CC3(CCN(c4nc5c(cnn5CC(F)F)c(=O)n4CC4CC4)C3)C2)cc(C(F)(F)F)n1` [Cmpd 1113]: the EC50 under setting [1] lay within 10 to 50 µM.

On to `O=C1CC2(CCN(c3ncc4cnn(CC(F)F)c4n3)CC2)CN1c1cncc(C(F)(F)F)n1` [Cmpd 288], for which, under setting [1], the EC50 is 10 to 50 µM.

Under “EC50 given as range classes”, `Cn1c(N2CCC3(CN(c4ccnc(C(F)(F)F)c4)C3)C2)nc2c(cnn2CC(F)(F)F)c1=O` [Cmpd 1017] yielded an EC50 of 10 to 50 µM.

`FC(F)c1ccc(N2CCCC3(C2)CN(c2cncc(-c4nncs4)n2)C3)cn1` [Compound 160, 6-[6-(difluoromethyl)pyridin-3-yl]-2-[6-(1,3,4-thiadiazol-2-yl)pyrazin-2-yl]-2,6-diazaspiro[3.5]nonane] displayed an EC50 under setting [1] of 10 to 50 µM.

In turn, `O=C1N(c2cc(C(F)(F)F)ccn2)C(=O)C2(CCN(c3cnc4cnn(CC(F)F)c4n3)CC2)N1Cc1ccc(F)cc1F` [Cmpd 714] had an EC50 under setting [1] of under 10 µM.

Molecule `FC(F)Cn1ncc2ncc(N3CCC4(C3)CN(c3nnc(C(F)(F)F)s3)C4)nc21` [Cmpd 1046] returned an EC50 under setting [1] of 10 to 50 µM.

`Cc1nn(CC(F)F)c2nc(N3CCC4(CC3)CCN(c3cc(C(F)F)ccn3)C4=O)cnc12` [Compound 167, 8-[1-(2,2-difluoroethyl)-3-methyl-1H-pyrazolo[3,4-b]pyrazin-6-yl]-2-[4-(difluoromethyl)pyridin-2-yl]-2,8-diazaspiro[4.5]decan-1-one] returned an EC50 under setting [1] of 10 to 50 µM.

The molecule `O=S(=O)(c1cccc(F)c1)N1CC2(CCN(c3cnc4cnn(CC(F)F)c4n3)C2)C1` [Cmpd 375] gave an EC50 under setting [1] of under 10 µM.

The molecule `FC(F)Cn1ncc2ncc(N3CCC4(CCN(c5cnc(OCC(F)(F)F)nc5)C4)CC3)nc21` [Cmpd 739] yielded a 50% effective concentration (EC50) under setting [1] of under 10 µM.

Under setting [1], `Cc1ncc(-c2nncs2)nc1N1CCC2(CN(c3ccnc(C(F)(F)F)c3)C2)C1` [Cmpd 1037] had an EC50 of under 10 µM.

Under setting [1], `Cc1cc(N2CCC3(CCN(c4nc5c(cnn5CC(F)F)c(=O)n4C)CC3)C2)nc(C(F)(F)F)n1` [Cmpd 1087] gave an EC50 of under 10 µM.

For the molecule `O=C(c1cccc(OC(F)(F)F)c1)N1CC2(CCN(c3cnc4cnn(CC(F)F)c4n3)C2)C1` [Cmpd 388], the concentration for a half-maximal effect (EC50) (EC50 given as range classes) fell in the range of 10 to 50 µM.

On to `Cc1nn(CC(F)F)c2nc(N3CCC4(CC(=O)N(c5ccnc(C(F)(F)F)c5)C4)C3)cnc12` (stereo not drawn) [Cmpd 495], for which the concentration for a half-maximal effect (EC50) under setting [1] fell in the range of 10 to 50 µM.

In the case of `Cn1cc(N2CCC3(CCN(c4cnc5cnn(CC(F)F)c5n4)CC3)C2=O)ccc1=O` [Cmpd 845], the EC50 under setting [1] lay within 10 to 50 µM.

In the case of `O=C1N(c2cnc3cnn(CC(F)F)c3n2)CCC12CN(c1ccc(C(F)(F)F)nc1)C2` [Cmpd 1010], for the setting “EC50 given as range classes”, the EC50 fell in the range of 50 to 100 µM.

Under “EC50 given as range classes”, `Cc1nc(N2CCC3(CC2)CN(c2cnc4c(C)nn(CC(F)F)c4n2)C3)cc(C(F)(F)F)n1` [Cmpd 585] returned an EC50 of under 10 µM.

As for `Cc1nc(N2CCC3(C2)CN(c2ncc4cnn(CC(F)F)c4n2)C3)cc(C(F)(F)F)n1` [Cmpd 553], the concentration for a half-maximal effect (EC50) under setting [1] fell in the range of 10 to 50 µM.

For the molecule `FC(F)Cn1ncc2ncc(N3CCC4(CCN(c5cccc(C(F)(F)F)n5)C4)CC3)nc21` [Compound 143, 8-[1-(2,2-difluoroethyl)-1H-pyrazolo[3,4-b]pyrazin-6-yl]-2-[6-(trifluoromethyl)pyridin-2-yl]-2,8-diazaspiro[4.5]decane], the 50% effective concentration (EC50) under setting [1] is under 10 µM.

`FC(F)Cn1ncc2ncc(N3CCCC4(C3)CN(c3ncccc3C(F)(F)F)C4)nc21` [Compound 18, 6-[1-(2,2-difluoroethyl)-1H-pyrazolo[3,4-b]pyrazin-6-yl]-2-[3-(trifluoromethyl)pyridine-2-yl]-2,6-diazaspiro[3.5]nonane]: under setting [1], the EC50 lay in the range of 10 to 50 µM.

As for `Cc1nc(C(F)(F)F)ncc1N1CCC2(CCN(c3ncc4c(C)nn(CC(F)(F)F)c4n3)C2)C1` (stereo not drawn) [Cmpd 658], the EC50 under setting [1] fell in the range of 10 to 50 µM.

For the molecule `O=C1CC2(CCN(c3cnc4cnn(CC(F)F)c4n3)CC2)CN1Cc1ccc(F)cc1` [Cmpd 444], the EC50 under setting [1] is under 10 µM.

For the setting “EC50 given as range classes”, `FC(F)Cn1ncc2ncc(N3CCC4(CC3)CN(c3ccc(C(F)(F)F)nc3)CCO4)nc21` [Cmpd 205] displayed an EC50 of under 10 µM.

As for `Cc1ccccc1C(=O)N1CC2(CCN(c3cnc4cnn(CC(F)F)c4n3)C2)C1` [Cmpd 384], under “EC50 given as range classes”, the 50% effective concentration (EC50) is under 10 µM.

In turn, `O=C1N(c2cncc(C(F)(F)F)c2)CCC12CCN(c1cnc3cnn(CC(F)F)c3n1)C2` (stereo not drawn) [Cmpd 204] showed an EC50 (EC50 given as range classes) of 10 to 50 µM.

Under setting [1], `Cc1ncc(C(F)(F)F)nc1N1CCC2(CCN(c3cnc4cnn(CC(F)F)c4n3)CC2)C1=O` [Cmpd 928] gave a 50% effective concentration (EC50) of 10 to 50 µM.

Molecule `FC(F)Cn1ncc2ncc(N3CCC4(CN(c5cc(C(F)(F)F)ccn5)C4)C3)nc21` [Compound 187, 6-[1-(2,2-difluoroethyl)-1H-pyrazolo[3,4-b]pyrazin-6-yl]-2-[4-(trifluoromethyl)pyridin-2-yl]-2,6-diazaspiro[3.4]octane] gave an EC50 (EC50 given as range classes) of 10 to 50 µM.

Turning to `Cc1nc(N2CC3(CCN(c4cnc5cnn(CC(F)F)c5n4)C3=O)C2)cc(C(F)(F)F)n1` [Cmpd 524], the EC50 under setting [1] is under 10 µM.

As for `O=C1N(c2ncccc2C(F)(F)F)CCC12CCN(c1cnc3cnn(CC(F)F)c3n1)CC2` [Cmpd 679], the EC50 under setting [1] is 10 to 50 µM.

In turn, `O=C1N(c2nnc(C(F)(F)F)s2)CCC12CCN(c1cnc3cnn(CC(F)F)c3n1)CC2` [Cmpd 840] showed an EC50 under setting [1] of under 10 µM.

Take `FC(F)Cn1ncc2ncc(N3CCC4(CCN(c5ccc(C(F)(F)F)cn5)C4)CC3)nc21` [Compound 144, 8-[1-(2,2-difluoroethyl)-1H-pyrazolo[3,4-b]pyrazin-6-yl]-2-[5-(trifluoromethyl)pyridin-2-yl]-2,8-diazaspiro[4.5]decane]: under setting [1], the EC50 is under 10 µM.

For the setting “EC50 given as range classes”, `COc1ccc(C(F)(F)F)c(N2CCC3(CCN(c4cnc5cnn(CC(F)F)c5n4)CC3)C2=O)n1` [Cmpd 784] yielded an EC50 of under 10 µM.

For `O=C1CC2(CCN(c3cnc4cnn(CC(F)F)c4n3)CC2)CN1Cc1ccc(Cl)cn1` [Cmpd 400], under “EC50 given as range classes”, the EC50 was 10 to 50 µM.

The molecule `Cc1nn(CC(F)F)c2nc(N3CCC4(CN(c5ccnc(C(F)(F)F)c5)C4)C3)cnc12` [Cmpd 985] registered an EC50 (EC50 given as range classes) of over 100 µM.

On to `FC(F)(F)c1cc(N2CC3(CCN(c4ncc5cnn(C6COC6)c5n4)C3)C2)ccn1` [Cmpd 962], for which the EC50 under setting [1] lay within 10 to 50 µM.

As for `FC(F)Cn1ncc2ncc(N3CCC4(CC3)CC(COc3cccnc3C(F)(F)F)C4)nc21` [Compound 89, 7-[1-(2,2-difluoroethyl)-1H-pyrazolo[3,4-b]pyrazin-6-yl]-2-({[2-(trifluoromethyl)pyridin-3-yl]oxy}methyl)-7-azaspiro[3.5]nonane], under setting [1], the EC50 was 10 to 50 µM.

For the molecule `COc1nc(N2CCC3(CC2)CCN(c2cc(C(F)(F)F)ccn2)C3=O)nc2c1cnn2CC(F)F` [Cmpd 303], under setting [1], the EC50 was under 10 µM.

`O=C1CC2(CCN(c3cnc4cnn(C5COC5)c4n3)CC2)CN1c1cncc(C(F)(F)F)n1` [Cmpd 277] had an EC50 under setting [1] of 10 to 50 µM.

The molecule `Fc1cnc(C(F)(F)F)cc1N1CCC2(CCN(c3cnc4cnn(CC(F)F)c4n3)CC2)C1` [Cmpd 741] had an EC50 under setting [1] of under 10 µM.

For the setting “EC50 given as range classes”, `O=C(c1cccc(C(F)(F)F)c1)N1CC2(CCN(c3cnc4cnn(CC(F)F)c4n3)C2)C1` [Cmpd 382] returned an EC50 of 10 to 50 µM.

Under setting [1], `FC(F)Cn1ncc2ncc(N3CCC4(CN(Cc5ccc(C(F)(F)F)nc5)C4)C3)nc21` [Cmpd 320] showed an EC50 of under 10 µM.

Turning to `O=C1N(c2nc(C(F)(F)F)c(F)cc2F)CCC12CCN(c1cnc3cnn(CC(F)F)c3n1)CC2` [Cmpd 664], the EC50 under setting [1] was in the range of 10 to 50 µM.

Under setting [1], `O=C1CC2(CCN(c3cnc4cnn(CC(F)F)c4n3)CC2)CN1c1ccc(C(F)(F)F)cn1` [Cmpd 685] had an EC50 of 10 to 50 µM.

As to `Cn1c(N2CCC3(CC2)CC(=O)N(Cc2cnc(C(F)(F)F)nc2)C3)nc2c(cnn2CC(F)F)c1=O` [Cmpd 926], under setting [1], the EC50 lay within 10 to 50 µM.

As for `FC(F)(F)c1cc(N2CCC3(CCN(c4cnc5cnn(C6COC6)c5n4)CC3)C2)cnn1` [Cmpd 1055], under setting [1], the EC50 was under 10 µM.

For the molecule `FC(F)Cn1ncc2ncc(N3CCC4(CN(c5ccc(OC(F)F)nc5)C4)C3)nc21` [Cmpd 450], under setting [1], the EC50 is 10 to 50 µM.

For the setting “EC50 given as range classes”, `COc1ccccc1C(=O)N1CC2(CCN(c3cnc4cnn(CC(F)F)c4n3)C2)C1` [Cmpd 391] gave an EC50 of under 10 µM.

As for `CCC1N(c2cnc(C(F)(F)F)nc2)C(=O)CC12CCN(c1cnc3cnn(CC(F)F)c3n1)CC2` (stereo not drawn) [Cmpd 905], the EC50 under setting [1] was 10 to 50 µM.

On to `FC(F)(F)c1ncc(N2CCC3(CCN(c4cnc5cnn(C6COC6)c5n4)C3)C2)cn1` (stereo not drawn) [Cmpd 533], for which, under setting [1], the EC50 was under 10 µM.

In turn, `FC(F)Cn1ncc2ncc(N3CC4(CN(c5ccc(C(F)(F)F)nc5)CCO4)C3)nc21` [Compound 173, 2-[1-(2,2-difluoroethyl)-1H-pyrazolo[3,4-b]pyrazin-6-yl]-8-[6-(trifluoromethyl)pyridin-3-yl]-5-oxa-2,8-diazaspiro[3.5]nonane] came in with an EC50 under setting [1] of 10 to 50 µM.
